Measurements from PubChem BioAssay AID1845203 (Molecular Pharmacology Branch, DTP, NCI, 2023).

System: G-401 tumor spheroids, viability % test/control
Experiment: Anticancer human tumor G-401 cell line growth inhibition;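 also: spheroids exposed to compound for 7 days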;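 as to viability, T/C: 100% = DMSO vehicle-treated spheroids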
Settings: spheroids with HUVEC and MSC; for IC50: curve of first compound; for viability, T/C: stronger effect = lower value
Text: Multicellular complex tumor spheroid response to DNA repair inhibitors in combination with DNA-damaging drugs
This study explores the anticancer activities of DNA-damaging drugs and inhibitors of DNA damage repair, both as single agents and in combinations. Complex tumor spheroids comprised of malignant cells, endothelial cells and mesenchymal stem cells served as an in vitro model for human solid tumors. This model system incorporates physiologically relevant features and patient-derived or established malignant cell lines with clinically relevant genetic alterations from many tumor types. Twenty-six patient-derived or established malignant cell lines were evaluated representing sarcoma, melanoma, small cell lung cancer (SCLC), non-small cell lung cancer (NSCLC), as well as bladder, ovarian and pancreatic cancers. The concentration ranges selected for each drug and investigational agent were based upon clinically achievable concentrations if the clinical Cmax of the agent was known.
Compounds. The drugs and compounds olaparib (NSC753686), talazoparib (NSC767125), berzosertib (NSC777718), elimusertib (NSC800525), nedisertib (NSC802822), VX-984 (NSC792969), AZD-1390 (NSC803789), temozolomide (NSC362856), topotecan (NSC609699), trabectedin (NSC813783), staurosporine (NSC755774), and gemcitabine (NSC613327) were obtained from the National Cancer Institute (NCI) Developmental Therapeutics Program Chemical Repository. The FDA-approved anticancer drug set is available from the Developmental Therapeutics Program at https://dtp.cancer.gov/organization/dscb/obtaining/available_plates.htm. […] The stock solutions were prepared in dimethyl sulfoxide (DMSO, Sigma-Aldrich, St. Louis, MO, cat. D2650) at 400-fold the tested concentration and stored at -70 degrees C. Prior to their use, the stock solutions were diluted in fresh medium and the final DMSO concentration in the assay was 0.25% (v/v). All drugs and investigational agents were tested over a range starting from a high concentration at or near the clinical Cmax and decreasing in half-log increments. If the clinical Cmax for an agent had not been determined, the highest concentration tested was 10 microM.
Cell Lines. The patient-derived cancer cell (PDC) lines: 156681-154-R-J1-PDC, 283228-195-R-J1-PDC, 287954-098-R-J1-PDC, 292921-168-R-J2-PDC, 349418-098-R-PDC, 425362-245-T-J1-PDC, 556581-035-R-J1-PDC, and BL0293-F563-PDC were received from the NCI Patient-Derived Models Repository (PDMR, https://pdmr.cancer.gov). The established cell lines HS-SY-2 (RRID:CVCL_8719), MPNST, and SYO-1 (RRID:CVCL_7146) were obtained from the Sloan Kettering Institute. The alveolar soft parts sarcoma cell line ASPS-1 (RRID:CVCL_S738) was established at the NCI and grown from internal seed stocks. The following established cell lines were purchased from the American Type Culture Collection (ATCC, Manassas, VA): G-401 (ATCC, cat. CRL-1441, RRID:CVCL_0270), SW982 (ATCC, cat. HTB-93, RRID:CVCL_1734), VA-ES-BJ (ATCC, cat. CRL-2138, RRID:CVCL_1785), NCI-H719 (ATCC, cat. CRL-5837, RRID:CVCL_1582), NCI-H196 (ATCC, cat. CRL-5823, RRID:CVCL_1509), NCI-H841 (ATCC, cat. CRL-5845, RRID:CVCL_1595), NCI-H1618 (ATCC, cat. CRL-5879, RRID:CVCL_1480), NCI-H1876 (ATCC, cat. CRL-5902, RRID:CVCL_1503), DMS 114 (ATCC, cat. CRL-2066; RRID:CVCL_1174), NCI-H211 (ATCC, cat. CRL-5824; RRID:CVCL_1529), and SW 1271 (ATCC, cat. CRL-2177, RRID:CVCL_1716). The small cell lung cancer cell line COR-L88 was purchased from Sigma-Aldrich (cat. 92031917-1VL, RRID:CVCL_1141). The non-small cell lung cancer cell lines NCI-H226 (RRID:CVCL_1544) and NCI-H322M (RRID:CVCL_1557) were established at the NCI and grown from internal seed stocks. Pooled donor human umbilical vein endothelial cells (HUVEC, Lonza, cat. CC-2519) and human mesenchymal stem cells (hMSC, Lonza, cat. PT-2501) were purchased from Lonza (Walkersville, MD).
Cell Culture. All cells were maintained in an incubator at 37 degrees C and 5% CO2 with 95% humidity. […]

Cc1sc2c(c1C)C(c1ccc(Cl)cc1)=NC(CC(=O)Nc1ccc(O)cc1)c1nnc(C)n1-2 (stereo not given) + COc1cc2c(cc1O)CCNC21CSC2c3c(OC(C)=O)c(C)c4c(c3C(COC1=O)N1C(O)C3Cc5cc(C)c(OC)c(O)c5C(C21)N3C)OCO4
IC50 (second compound 30 pM): 160 nM
IC50 (second compound 94.9 pM): 115 nM
IC50 (second compound 0.0003 µM): < 9.49 nM
IC50 (second compound 0.000949 µM): < 9.49 nM
IC50 (second compound 0.003 µM): < 9.49 nM
viability, T/C (second compound 30 pM, first compound 0.00949 µM): 102%
viability, T/C (second compound 30 pM, first compound 0.03 µM): 83.3%
viability, T/C (second compound 30 pM, first compound 0.0949 µM): 63.9%
viability, T/C (second compound 30 pM, first compound 0.3 µM): 34.8%
viability, T/C (second compound 30 pM, first compound 0.949 µM): 17.8%
viability, T/C (second compound 30 pM, first compound 3 µM): 8.07%
viability, T/C (second compound 94.9 pM, first compound 0.00949 µM): 92.8%
viability, T/C (second compound 94.9 pM, first compound 0.03 µM): 74.7%
viability, T/C (second compound 94.9 pM, first compound 0.0949 µM): 55.1%
viability, T/C (second compound 94.9 pM, first compound 0.3 µM): 31.3%
viability, T/C (second compound 94.9 pM, first compound 0.949 µM): 12%
viability, T/C (second compound 94.9 pM, first compound 3 µM): 5.01%
viability, T/C (second compound 0.0003 µM, first compound 0.00949 µM): 35.1%
viability, T/C (second compound 0.0003 µM, first compound 0.03 µM): 38.7%
viability, T/C (second compound 0.0003 µM, first compound 0.0949 µM): 27.1%
viability, T/C (second compound 0.0003 µM, first compound 0.3 µM): 9.01%
viability, T/C (second compound 0.0003 µM, first compound 0.949 µM): 4.45%
viability, T/C (second compound 0.0003 µM, first compound 3 µM): 1.34%
viability, T/C (second compound 0.000949 µM, first compound 0.00949 µM): 19.8%
viability, T/C (second compound 0.000949 µM, first compound 0.03 µM): 3.94%
viability, T/C (second compound 0.000949 µM, first compound 0.0949 µM): 19.1%
viability, T/C (second compound 0.000949 µM, first compound 0.3 µM): 1.51%
viability, T/C (second compound 0.000949 µM, first compound 0.949 µM): 0.15%
viability, T/C (second compound 0.000949 µM, first compound 3 µM): 0.16%
viability, T/C (second compound 0.003 µM, first compound 0.00949 µM): 0.08%
viability, T/C (second compound 0.003 µM, first compound 0.03 µM): 0.07%
viability, T/C (second compound 0.003 µM, first compound 0.0949 µM): 0.12%
viability, T/C (second compound 0.003 µM, first compound 0.3 µM): 0.13%
viability, T/C (second compound 0.003 µM, first compound 0.949 µM): 0.12%
viability, T/C (second compound 0.003 µM, first compound 3 µM): 0.24%
